From patent publication US20250325524A1, “COMPOSITIONS AND METHODS FOR TREATING RENAL INJURY” (CASE WESTERN RESERVE UNIVERSITY, priority 2018, published 2025)
Entries after “also recorded” stand apart in the source; their conditions may differ.

Columns and labels:
[1] = tested on: PGE2 production by cell lines; test: PGE2 production by cell lines; format: cell-based
mice with ischemic AKI [2] = test: renal IRI model: necrotic and apoptotic cell death in the outer medulla; format: in vivo
Experimental: (§1) Mice were anesthetized with isoflurane using a vaporizer and placed on a heating pad to maintain their body temperature at 37° C. Both renal arteries were identified through dorsal incisions and clamped for 20, 30, 35, or 37 minutes. Reperfusion was confirmed visually upon release of the clamps. Surgical wounds were closed, and mice were administered 1 mL of saline i.p. The mice were kept in a warm incubator until they regained consciousness and were allowed to recover with ad libitum access to food and water. […] Serum and kidney tissue were collected 24 hours after renal IRI.
To evaluate necrosis, 5-μm-thick paraffin sections were stained with H&E. Tubular injury was scored semi quantitatively according to a scoring system by a pathologist who examined at least 20 separate fields (×400) in the outer medulla, which is the zone most sensitive to ischemic injury. The scoring system was as follows: 0, no damage; 1, patchy isolated unicellular necrosis; 2, tubular necrosis <25%; 3, tubular necrosis 25-50%; and 4, tubular necrosis >50%. At least 20 consecutive high-power fields (magnification, ×400) per section were scored by two operators blind to the details of the experiment. To analyze the frequency of apoptosis, 5-μm-thick paraffin sections were subjected to terminal deoxynucleotidyl transferase-mediated dUTP nick-end labeling (TUNEL) assay (APT110; Millipore) according to the manufacturer's protocol. TUNEL-positive cells were counted in at least five separate fields (×640 magnification) in the outer medulla, and the apoptosis index (%, number of apoptosis cells/total number of cells) was calculated using GENASIS software.

[3] = tested on: endogenous PGE2 levels in kidney tissue; test: endogenous PGE2 levels in kidney tissue after i.p. injection; format: in vivo; details: mice
Experimental: (§2) […] Next, the kidney tissues (˜20 mg) were homogenized in 500 μL of cold PBS containing indomethacin (10 μg/mL) using a tissue homogenizer. The suspension was sonicated in an ice-water bath for 1 minute using cycles of 10 seconds of sonication with 10 seconds of cooling, and they were then centrifuged for 10 minutes at 12,000 rpm. The supernatant was collected for PGE2 assay. Protein concentrations were determined by BCA assay (23225; Thermo Scientific). The PGE2 level in the supernatant was measured using a PGE2 ELISA Kit (SKGE004B; R&D Systems) in triplicate. PGE2 levels were expressed as ng PGE2/mg protein.

mice = test: toxicity after IP injection into mice
PGE2 levels = test: renal IRI model: time course of PGE2 in kidney tissue and serum; format: in vivo, mice
Experimental: as §1, §2

[4] = tested on: HMGB1 and proinflammatory cytokines; test: renal IRI model: HMGB1 and cytokine levels; format: in vivo; details: mice
Experimental: as §1
Inflammatory cytokine mRNA and protein levels were measured by real-time PCR and ELISA, respectively. Kidney tissue and serum were harvested after reperfusion for 24 h. Total RNA was extracted from frozen kidney tissue using TRIzol reagent (15596018; Invitrogen), according to the manufacturer's protocol. RNA was converted to cDNA using oligo-dT primers. IL-17, TNF-α, and […] levels were determined by real-time PCR with SYBR green PCR Master Mix and the primers listed in Table 1. For ELISA, frozen kidney tissues were homogenized in phosphate buffer. Serum IL-17 (M1700; R&D Systems), TNF-α (MTAOOB; R&D Systems), and IL-10β (MLBOOC; R&D Systems) were measured using commercial ELISA kits according to the manufacturer's instructions.

[5] = tested on: renal arterioles in the outer medulla; test: renal vasodilatation in the outer medulla (α-SMA-positive arteriole area); format: in vivo, mice; details: α-SMA staining
Experimental: as §1
To quantify vasodilation, the inner arteriole area of the outer medulla was determined using α-SMA-stained sections. After counterstaining with Mayer's hematoxylin, the inner area of α-SMA-positive vessels in the outer medulla (×25) was measured using ImageJ. The results are expressed as average areas of renal arteries outer medulla.

[6] = tested on: PGE2 receptors (EP1, EP2, EP3 and EP4) and adenosine receptor (A2A); test: renal IRI model: PGE2 receptors (EP1-EP4) and adenosine A2A receptor levels; format: in vivo, mice
Experimental: as §1
PGE2 receptors (EP1, EP2, EP3 and EP4) and adenosine receptor (A2A) mRNA levels were determined by real-time PCR with SYBR green PCR Master Mix and the primers listed in Table 1. Their protein levels were determined by western blotting assay and immunofluorescence analysis.

[7] = stability on incubation with hepatocyte cell lines; format: in vitro ADME
mice with ischemic AKI [8] = test: renal ischemia-reperfusion injury model: renal function (serum creatinine, NGAL, KIM-1); format: in vivo; details: IRI mice, single pre-IRI dose
mice with ischemic AKI [9] = test: as above; format: in vivo; details: IRI-30 min, 24 hours reperfusion
Experimental: as §1
Renal function was assessed by determining the serum levels of creatinine (KB02-H1; Arbor Assays), Lipocalin-2 (NGAL; MLCN20; R&D Systems), and kidney injury molecule-1 (KIM-1; MKM100; R&D Systems) after reperfusion for 24 h.

[10] = chemical stability in aqueous solutions; format: physicochemical; details: over broad pH range
[11] = real-time PCR and ELISA, 3 doses 5 mg/kg
[12] = real-time PCR at POD1, vs IRI-vehicle
[13] = IRI mice, pretreatment, 0.5 hours, mRNA in kidney tissue
[14] = kidney tissue, in comparison to sham and to IRI mice
[15] = 5 mg/kg 1 hour before, immediately after, and 12 hours after IRI, vs IRI-vehicle

CCCC[S+]([O-])c1sc2nc(-c3cccs3)cc(-c3ccccc3)c2c1N (centres unmarked) [SW033291]
PGE2 production by cell lines [1]: increase PGE2 production by cell lines
histologic renal injury score (mice with ischemic AKI [2]; 3 doses 5 mg/kg i.p., POD1, H&E, outer medulla): reducing
count of TUNEL positive apoptotic cells (mice with ischemic AKI [2]; 3 doses 5 mg/kg i.p., POD1, outer medulla): reducing
tissue congestion in the outer medulla (gross pathology) (mice with ischemic AKI [2]; 3 doses 5 mg/kg i.p., POD1, vs IRI-vehicle): ameliorated
renal injury (histopathology, tubular injury) (mice with ischemic AKI [2]; 3 doses 5 mg/kg, POD1, 5 mg/kg): markedly alleviated renal injury; also recorded: more effective than systemic administration of either exogenous PGE1 or PGE2
level of PGE2 in kidney tissue, time course ([3]; 5 mg/kg i.p., 1 and 3 hours): peaked at 1 hour at nearly twice as high as at baseline
endogenous PGE2 levels in kidney tissue ([3]; 3 hours after i.p. 2.5 or 5 mg/kg, vs vehicle): in dose-dependent fashion, upregulated
toxicity (mice; IP into mice at 0.3 μmole/per mouse twice daily for 21 days): no toxicity
immediate toxicity over 24 hours (mice; IP into mice at 0.6 μmole/per mouse): no immediate toxicity
immediate toxicity over 24 hours (mice; IP into mice at 1.2 μmole/per mouse): no immediate toxicity
serum PGE2 level (PGE2 levels; BI30 mice at 24 hours, prophylaxis): significantly decreased
post-IRI peaks of renal PGE2 at 0.5 and 14 hours (PGE2 levels; IRI mice, single pre-IRI dose, kidney tissue): substantially block
renal PGE2 peak over baseline before IRI (PGE2 levels; mice, single pre-IRI dose, kidney tissue): 5.12 fold
IL-1B protein ([4]; ELISA, 3 doses 5 mg/kg): reductions
reduction of HMGB1 protein level compared to the IRI-vehicle group ([4]; kidney tissue, western blot, 3 doses 5 mg/kg): 30%
induction of IL-17 [4, 11]: blockade of induction
induction of TNF-α [4, 11]: blockade of induction
IL-24 mRNA [4, 12]: significantly induces
anti-inflammatory cytokine IL-4 mRNA [4, 12]: significantly induces
anti-inflammatory cytokine IL-10 mRNA [4, 12]: significantly induces
renal arteriole area in the outer medulla ([5]; IRI mice): significantly increased
renal arteriole area in the outer medulla ([5]; normal mice): increased
increase of A2A receptor over baseline [6, 13]: 1.6 fold
increase of EP4 receptor over baseline [6, 13]: 2.4 fold
EP1 receptor mRNA ([6]; kidney tissue, IRI mice): without effecting
EP2 receptor mRNA ([6]; kidney tissue, IRI mice): without effecting
EP3 receptor mRNA ([6]; kidney tissue, IRI mice): without effecting
increase of EP4 receptor mRNA and protein levels [6, 14]: up to 2.3 fold
levels of the adenosine A2A receptor protein [6, 14]: induced
chemical stability when incubated with hepatocyte cell lines [7]: chemically stable
induction of KIM-1 (time course) (mice with ischemic AKI [8]): notably effective blockade of induction
induction of creatinine (time course) (mice with ischemic AKI [8]): notably effective blockade of induction
reduction of peak induction of NGAL (mice with ischemic AKI [8]; peak at 12 hours): 20%
serum KIM-1 (mice with ischemic AKI [9]; [15]): significantly reducing
serum NGAL (mice with ischemic AKI [9]; [15]): significantly reducing
serum creatinine (mice with ischemic AKI [9]; [15]): significantly reducing
renal protection from IRI (serum NGAL, creatinine, KIM-1) (mice with ischemic AKI [9]; 3 doses of 5 mg/kg): markedly protected kidney from IRI
chemical stability in aqueous solutions [10]: chemically stable
